Source: US20250340532A1, “HETEROCYCLIC COMPOUND CCR4 INHIBITOR AND USER THEREOF” (Xizang Haisco Pharmaceutical Co., Ltd., priority 2022, published 2025)

What was measured:
CCR4 = target: T1, CCR4 (Homo sapiens, UniProt P51679); experiment: Calcium flow detected by FLIPR; format: cell-based; conditions: CCR4/HEK293 cells, agonist CCL17, Fluo-4 calcium signal
T1 construct: expressed in transfected cells; host or cells: HEK293
T1 sequence (P51679 1-360): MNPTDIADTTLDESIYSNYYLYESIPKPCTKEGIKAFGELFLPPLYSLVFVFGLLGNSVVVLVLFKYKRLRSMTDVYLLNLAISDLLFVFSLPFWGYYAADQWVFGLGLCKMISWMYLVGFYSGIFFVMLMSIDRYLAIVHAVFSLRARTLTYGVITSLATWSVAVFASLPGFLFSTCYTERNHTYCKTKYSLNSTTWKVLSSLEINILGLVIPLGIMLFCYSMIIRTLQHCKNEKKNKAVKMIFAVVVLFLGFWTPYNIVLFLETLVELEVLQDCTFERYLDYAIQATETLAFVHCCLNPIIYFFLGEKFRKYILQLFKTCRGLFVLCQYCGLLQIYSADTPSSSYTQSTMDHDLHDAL
Procedure: CCR4/HEK293 cells were added to a 384-well cell culture plate (Greiner #781946) at a rate of 20 μL/well (20,000 cells/well) and incubated overnight in a 37° C., 5% CO2 incubator (Incubator, Thermo). On the second day, the 384-well cell culture plate was taken out of the incubator and the culture medium was removed; Then, 20 μL of detection buffer and 20 μL of 2X Fluo-4 Direct™ (Invitrogen, Cat #F10471) were added. Then, compounds were added at 10 μL/well (compounds were subjected to 4-fold serial dilution, and the highest detection concentration was 10 μM), and the cells were incubated in a 37° C., 5% CO2 incubator for 50 min, and then incubated at room temperature for 10 min. The 384-well culture plate was placed in FLIPR ([…]), 10 μL of 6X agonist CCL17 was added by using an automatic loader, and the fluorescence signal was read immediately. The mean and standard error (Mean±SEM) were statistically analyzed using Graphpad Prism software, and the IC50 value was calculated.
The experimental results are shown in Table 3, where A represents IC50<100 nm; B represents 100 nM≤IC50<500 nM, and C represents 500 nM≤IC50.

[1] = Pharmacokinetic test in rats; format: in vivo, SD rats
Procedure: 1.1 Experimental animals: male SD rats, about 220 g, 6-8 weeks old, 6 rats/compound. Purchased from Chengdu Ddossy Experimental Animals Co., Ltd.
1.2 Experimental design: on the day of the experiment, 36 SD rats were randomly grouped according to their body weights. The animals were fasted with water available for 12 to 14 h one day before the administration and were fed 4 h after the administration.
(§1) Before and after the administration, 0.15 ml of blood was taken from the orbit of the animals under isoflurane anesthesia and placed in an EDTAK2 centrifuge tube. The blood was centrifuged at 5000 rpm and 4° C. for 10 min to collect plasma. The blood collection time points for the intravenous administration group and intragastric administration group were: 0, 5 min, 15 min, 30 min, 1 h, 2 h, 4 h, 6 h, 8 h and 24 h. Before analysis and detection, all samples were stored at −80° C., and a quantitative analysis of samples was performed using LC-MS/MS.

[2] = Pharmacokinetic test in mice; format: in vivo, C57 mice
Procedure: 1.1 Experimental animals: Male C57 mice, 20-25 g, 6 mice/compound. Purchased from Chengdu Ddossy Experimental Animals Co., Ltd.
1.2 Experimental design: On the day of the experiment, 24 C57 mice were randomly grouped according to their body weight. The animals were fasted with water available for 12 to 14 h one day before the administration and were fed 4 h after the administration.
as §1, with “0.06 mL” for “0.15 ml”, “intravenous” for “intravenous administration”, “0 min,” for “0,”, “7” for “6 h, 8”

[3] = Pharmacokinetic test in beagle dogs; format: in vivo; conditions: for AUC(0-t) / clearance / Vd: male, beagle, dog, plasma; for Vd: read-out: Vdss
Procedure: Experimental animals: male beagle dogs, about 8-11 kg, 6 beagle dogs/compound, purchased from Beijing Marshall Biotechnology Co., Ltd.
Experimental method: On the day of the experiment, 18 beagle dogs were randomly grouped according to their body weights. The animals were fasted with water available for 12 to 14 h one day before the administration and were fed 4 h after the administration.
Before and after the administration, 1 ml of blood was taken from the jugular veins or limb veins, and placed in an EDTAK2 centrifuge tube. Centrifugation was performed at 5000 rpm at 4° C. for 10 min, and plasma was collected. The blood collection time points for the intravenous group and intragastric administration group were: 0 min, 5 min, 15 min, 30 min, 1 h, 2 h, 4 h, 6 h, 8 h, 10 h, 12 h, 24 h, 48 h, and 72 h. Before analysis and detection, all samples were stored at −80° C. The samples were analyzed quantitatively by LC-MS/MS.

[4] = male, SD, rat, iv, plasma, i.v. 2.5 mg/kg
[5] = male, C57, mouse, iv, plasma, i.v. 2.5 mg/kg

| IC50 (CCR4) [nM] | F ([1]; i.g. 10 mg/kg) [%] | AUC [1, 4] [ng·h/mL] | clearance [1, 4] [mL/min/kg] | Vd ([1]; male, SD, rat, iv, plasma, i.v. 2.5 mg/kg, read-out: Vdss) [L/kg] | AUC ([1]; male, SD, rat, po, plasma, i.g. 10 mg/kg) [ng·h/mL] | F ([2]; i.g. 10 mg/kg) [%] | AUC(0-t) [2, 5] [ng·h/mL] | clearance [2, 5] [mL/min/kg] | Vd ([2]; male, C57, mouse, iv, plasma, i.v. 2.5 mg/kg, read-out: Vdss) [L/kg] | AUC(0-t) ([2]; male, C57, mouse, po, plasma, i.g. 10 mg/kg) [ng·h/mL] | F ([3]; i.g. 3 mg/kg) [%] | AUC(0-t) ([3]; iv, i.v. 1 mg/kg) [ng·h/mL] | clearance ([3]; iv, i.v. 1 mg/kg) [mL/min/kg] | Vd ([3]; iv, i.v. 1 mg/kg) [L/kg] | AUC(0-t) ([3]; po, i.g. 3 mg/kg) [ng·h/mL] | Structure (SMILES) |
| --- | --- | --- | --- | --- | --- | --- | --- | --- | --- | --- | --- | --- | --- | --- | --- | --- |
| < 100 | 80.3 ± 34 | 4630 ± 1030 | 9.19 ± 2.1 | 1.55 ± 0.091 | 14900 ± 6380 | 90.4 ± 14 | 7400 ± 385 | 5.62 ± 0.29 | 1.04 ± 0.055 | 26800 ± 4110 | >98 | 12100 ± 3170 | 1.38 ± 0.4 | 1.2 ± 0.16 | 37700 ± 10100 | Cc1nc(N2CCC(C3CN(C4CC(C)(C(=O)O)C4)CCO3)CC2)nc(NC(C)c2ccc(Cl)cc2Cl)c1Cl (single isomer, unassigned) [Compound 73 isomer 3] |
| < 100 | – | – | – | – | – | – | – | – | – | – | >98 | 21100 ± 3840 | 0.672 ± 0.14 | 1.04 ± 0.2 | 68400 ± 7190 | CC(Nc1cc(N2CCC(C3CN(C4CC(C)(C(=O)O)C4)CCO3)CC2)ccc1Cl)c1ccc(Cl)cc1Cl (single isomer, unassigned) [Compound 82 isomer 3] |
